Key:
PDGFR-β = PDGFR-β (Homo sapiens, UniProt P09619); experiment: PDGFR-β inhibition; format: biochemical; details: read-out: PDGFR-β IC-50
CSF-1R = CSF-1R (Homo sapiens, UniProt P07333); experiment: CSF-1R inhibition, biochemical assay
[1] = tested on: glioma in RCAS-PDGF-B-HA/Nestin-Tv-a; Ink4a/Arf−/− mice; experiment: Histologic analyses of tumors from short-term trial; format: in vivo, mouse; details: for Apoptosis (% CC3+) / Macrophages (% CD68+) / Total DAPI+ Cells / Tumor Cells (% Olig2+) / Phagocytic Capacity / Vasculature (CD31 MVD): vs vehicle
Description: The analyses were performed on tissues from the short-term trial (see Example 5), so that tumors from the different treatment groups could be compared at the same defined endpoint. Tumor cell density was examined using the oligodendrocyte marker Olig2, which has previously been used to identify glioma cells. […] (FIG. 6A).
To isolate tissues for snap freezing in liquid nitrogen, mice were euthanized by carbon dioxide asphyxiation or fully anesthetized with avertin (2,2,2-tribromoethanol, Sigma) and cervically dislocated prior to tissue harvest. For flow cytometry, mice were fully anesthetized with avertin and transcardially perfused with 20 ml of PBS. The brain was then isolated and the tumor macrodissected from the surrounding normal tissue. For proliferation analysis, mice were injected intraperitoneally with […] of bromodeoxyuridine (BrdU; Sigma) 2 hours prior to sacrifice. To isolate tissues for frozen histology, mice were fully anesthetized with avertin, transcardially perfused with 10 ml of PBS, followed by 10 ml of 4% paraformaldehyde in PBS (PFA). The brain was postfixed in PFA overnight at 4° C. while other tissues were cryopreserved in 30% sucrose at 4° C. After post-fixation, the brain was then transferred to 30% sucrose and incubated at 4° C. until the brain was fully equilibrated and sank to the bottom of the tube (typically 2 to 3 days). All tissues were then embedded in OCT (Tissue-Tek) and 10 μm cryostat tissue sections were used for all subsequent analysis.
For immunofluorescence, 10 μm thick frozen sections were thawed and dried at room temperature and then washed in PBS. For the standard staining protocol, tissue sections were blocked in 0.5% PNB in PBS for at least 1 hour at room temperature or up to overnight at 4° C., followed by incubation in primary antibody in 0.25% PNB for 2 hours at room temperature or overnight at 4° C. Sections were then washed in PBS and incubated with the appropriate fluorophore-conjugated secondary antibody (Molecular Probes) at a dilution 1:500 in 0.25% PNB for 1 hour at room temperature. After washing in PBS, tissue sections were counterstained with DAPI (5 mg/ml stock diluted 1:5000 in PBS) for 5 minutes prior to mounting with ProLong Gold Antifade mounting media (Invitrogen).
For angiogenesis and proliferation analysis, tissue sections were first subjected to citrate buffer based antigen retrieval by submerging in antigen unmasking solution (0.94% v/v in distilled water; Vector Laboratories) and microwaving for 10 minutes on half power, followed by cooling to room temperature for at least 30 minutes. For angiogenesis analysis, tissues were then washed in PBS and blocked with mouse Ig blocking reagent (Vector Laboratories) according to the manufacturer's instructions for 1 hour at room temperature. For proliferation analysis, after antigen retrieval, tissue sections were incubated with 2M HCl for 15 minutes at room temperature to denature DNA and then in neutralizing 0.1M sodium borate buffer (pH 8.5) for 5 minutes. After PBS washes, the rest of the staining was performed according to the standard protocol.
For staining for phagocytosis analysis, 10 μm thick frozen sections were thawed and dried at room temperature and then washed in PBS. Tissue sections were blocked in 0.5% PNB in PBS for at least 1 hour at room temperature, followed by incubation in rabbit anti-cleaved caspase-3 primary antibody diluted 1:500 in 0.5% PNB overnight at 4° C. The next day, slides were washed 6 times for 5 minutes in PBS prior to incubation with goat-anti-rabbit Alexa568 secondary antibody (1:500 in 0.5% PNB) for 1 hour at room temperature. Tissue sections were then washed 6 times for 5 minutes in PBS and blocked overnight at 4° C. in a new buffer of 5% donkey serum, 3% bovine serum albumin, and 0.5% PNB in PBS. […]

[2] = tested on: several hundred kinases in the Ambit kinase array; experiment: Ambit kinase array screen; format: binding; details: lower than 50% only against CSF-1R, PDGFRα and PDGFRβ
[3] = tested on: Bone marrow-derived macrophages (BMDMs); experiment: BMDM proliferation/survival (MTT); format: cell-based, mouse
Description: (§1) Cell growth rate was determined using the MTT cell proliferation kit (Roche). […] Media was changed every 48 hours. BMDM and CRL-2467 cells were supplemented with 10 ng/ml and 30 ng/ml recombinant mouse CSF-1 respectively unless otherwise indicated. 10 μl of MTT labeling reagent was added to each well and then incubated for 4 hours at 37° C., followed by the addition of 100 μl MTT solubilization reagent overnight. The mixture was gently resuspended and absorbance was measured at 595 nm and 750 nm on a spectraMax 340pc plate reader (Molecular Devices).

[4] = tested on: CSF-dependent cell proliferation; experiment: CSF-dependent cell proliferation; format: cell-based; details: read-out: CSF-dependent cell proliferation IC-50
[5] = tested on: mouse GBM cell cultures (GBM1-4); experiment: Mouse glioma cell line proliferation (MTT); format: cell-based
Description: (§2) For neurosphere formation the cell pellet was resuspended in neurosphere media consisting of mouse NSC Basal Media, NSC proliferation supplements, 10 ng/ml EGF, 20 ng/ml basic-FGF and 1 mg/ml Heparin (Stem Cell Technologies). Fresh media was added every 72 hours for 2 weeks. Primary neurospheres were collected, mechanically disaggregated to a single cell suspension and propagated by serial passaging. To generate glioma cell lines, secondary neurospheres were dissociated to single cell suspensions and cultivated in DMEM+10% FBS as a monolayer. Multiple glioma cell lines were derived from independent mice, denoted GBM1-4 herein. Glioma cells were infected with a pBabe-H2B-mCherry construct as described previously (O. Florey, et al., Nat Cell Biol 13, 1335 (2011)).
as §1

[6] = tested on: glioma in RCAS-PDGF-B-HA/Nestin-Tv-a; Ink4a/Arf−/− mice; experiment: Short-term trial, tumor volume by MRI; format: in vivo, mouse
Description: Tumor volume in the RCAS-PDGF-B-HA/Nestin-Tv-a; Ink4a/Arf^−/− mice was determined by MRI, and mice were added to the trial when this was at least 4.5 mm^3 or greater. […] MRI scans were performed on the day before treatment was initiated, at the mid-point of the treatment, and at the day before the end of the trial period.
The vehicle control, 20% captisol, was processed in the same manner.
To determine tumor volume, regions of interest (ROI) were circumscribed on T2 weighted images and their corresponding area in mm^2 was multiplied by the slice height of 0.7 mm. The total tumor volume is the sum of the ROI volume in each slice, and the volume for the first and last slice in which the tumor appear is halved to approximate the volume of a trapezoid. When tumor volume was in the range of 4.5-40 mm^3, animals were randomly assigned to treatment groups. […] A size-matched vehicle treated cohort was not included for this cohort having the larger starting tumor burden because these mice would not have been able to survive to the trial endpoint.

[7] = tested on: glioma in RCAS-PDGF-B-HA/Nestin-Tv-a; Ink4a/Arf−/− mice; experiment: Long-term survival trial in glioma model; format: in vivo, mouse
[8] = tested on: neurospheres derived from mouse RCAS-PDGF-B-HA/Nestin-Tv-a; Ink4a/Arf−/− GBMs; experiment: Secondary neurosphere formation assay; format: cell-based
Description: as §2
Media was changed every 48 hours. Secondary neurosphere formation was assayed by counting the number of neurospheres obtained after 2 weeks.

[9] = target: >200 miscellaneous kinases; experiment: Kinase selectivity panel; format: biochemical; details: read-out: IC50 values for most of >200 miscellaneous kinases

Chain of PDGFR-β (P09619 33-1106, species assumed): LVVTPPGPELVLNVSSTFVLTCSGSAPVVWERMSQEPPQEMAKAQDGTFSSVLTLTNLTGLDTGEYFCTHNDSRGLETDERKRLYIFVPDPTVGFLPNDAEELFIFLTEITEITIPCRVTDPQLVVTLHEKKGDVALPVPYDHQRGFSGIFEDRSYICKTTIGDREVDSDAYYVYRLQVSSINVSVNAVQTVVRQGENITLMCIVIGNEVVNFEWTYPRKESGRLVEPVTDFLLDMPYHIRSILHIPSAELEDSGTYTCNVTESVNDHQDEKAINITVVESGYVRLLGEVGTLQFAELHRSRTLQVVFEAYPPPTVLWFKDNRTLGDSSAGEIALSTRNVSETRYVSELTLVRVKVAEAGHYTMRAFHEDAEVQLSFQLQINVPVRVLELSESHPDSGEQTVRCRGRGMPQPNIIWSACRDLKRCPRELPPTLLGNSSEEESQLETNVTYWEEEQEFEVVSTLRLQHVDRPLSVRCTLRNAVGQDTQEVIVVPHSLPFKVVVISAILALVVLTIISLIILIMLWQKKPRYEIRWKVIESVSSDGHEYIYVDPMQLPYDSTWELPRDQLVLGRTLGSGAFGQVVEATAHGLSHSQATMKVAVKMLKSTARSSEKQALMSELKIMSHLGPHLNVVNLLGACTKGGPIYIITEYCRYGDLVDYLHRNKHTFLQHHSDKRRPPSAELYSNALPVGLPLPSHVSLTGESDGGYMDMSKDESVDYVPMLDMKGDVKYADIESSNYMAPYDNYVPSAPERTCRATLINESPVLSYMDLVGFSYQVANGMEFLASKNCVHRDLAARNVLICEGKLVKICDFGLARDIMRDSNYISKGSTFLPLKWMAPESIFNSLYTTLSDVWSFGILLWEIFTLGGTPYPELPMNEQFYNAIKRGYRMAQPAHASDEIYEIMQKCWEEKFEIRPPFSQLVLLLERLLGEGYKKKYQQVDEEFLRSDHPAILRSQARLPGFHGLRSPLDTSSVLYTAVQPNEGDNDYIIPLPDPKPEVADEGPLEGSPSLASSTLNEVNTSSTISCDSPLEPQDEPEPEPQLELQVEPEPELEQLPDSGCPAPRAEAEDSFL
Chain of CSF-1R (P07333 20-972, species assumed): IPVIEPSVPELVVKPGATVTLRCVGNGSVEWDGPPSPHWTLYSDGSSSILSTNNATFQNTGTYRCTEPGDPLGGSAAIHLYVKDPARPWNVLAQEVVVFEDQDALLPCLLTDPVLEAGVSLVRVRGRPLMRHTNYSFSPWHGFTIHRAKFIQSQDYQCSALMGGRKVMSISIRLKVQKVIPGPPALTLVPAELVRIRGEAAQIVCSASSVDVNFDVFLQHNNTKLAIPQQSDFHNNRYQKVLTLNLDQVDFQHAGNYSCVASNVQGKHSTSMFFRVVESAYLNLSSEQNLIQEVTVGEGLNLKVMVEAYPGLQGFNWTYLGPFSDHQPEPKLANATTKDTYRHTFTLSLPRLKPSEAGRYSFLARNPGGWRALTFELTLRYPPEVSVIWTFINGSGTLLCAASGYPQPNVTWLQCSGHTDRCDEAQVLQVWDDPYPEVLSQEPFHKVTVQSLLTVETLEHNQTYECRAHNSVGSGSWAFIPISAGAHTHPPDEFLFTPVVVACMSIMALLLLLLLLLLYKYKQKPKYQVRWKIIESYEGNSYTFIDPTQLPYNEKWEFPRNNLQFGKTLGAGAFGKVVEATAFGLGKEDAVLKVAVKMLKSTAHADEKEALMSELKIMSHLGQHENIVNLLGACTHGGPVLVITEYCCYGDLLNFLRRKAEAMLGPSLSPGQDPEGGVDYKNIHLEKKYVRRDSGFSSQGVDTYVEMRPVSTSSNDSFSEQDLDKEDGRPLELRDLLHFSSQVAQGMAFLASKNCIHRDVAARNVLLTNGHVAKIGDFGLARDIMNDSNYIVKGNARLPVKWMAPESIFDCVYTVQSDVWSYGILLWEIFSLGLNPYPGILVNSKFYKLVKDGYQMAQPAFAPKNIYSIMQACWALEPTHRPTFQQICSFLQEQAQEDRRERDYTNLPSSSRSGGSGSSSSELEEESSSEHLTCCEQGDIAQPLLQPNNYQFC

## CCNC(=O)c1cc(Oc2ccc3nc(N[C@@H]4CCCC[C@H]4O)sc3c2)ccn1 [Ig-B]
PDGFR-β
  IC50: 13.9 µM
CSF-1R
  IC50: 0.006 µM

## Cn1cc(-c2cc(Oc3ccc4nc(N[C@@H]5CCCC[C@H]5O)sc4c3)ccn2)cn1 [Ih-A]
PDGFR-β
  IC50: 0.74 µM
CSF-1R
  IC50: 0.0009 µM

## CCCNC(=O)c1cc(Oc2ccc3nc(N[C@@H]4CCCC[C@H]4O)sc3c2)ccn1
PDGFR-β
  IC50: 7.7 µM
CSF-1R
  IC50: 0.008 µM

## CCn1cc(-c2cc(Oc3ccc4nc(N[C@@H]5CCCC[C@H]5O)sc4c3)ccn2)cn1
PDGFR-β
  IC50: 1.7 µM
CSF-1R
  IC50: 0.003 µM

## CNC(=O)c1cc(Oc2ccc3nc(N[C@@H]4CCCC[C@H]4O)sc3c2)ccn1 [BLZ945]
[1]; BLZ945, Day 3
  Apoptosis (% CC3+): +17-fold
  Macrophages (% CD68+): +3-fold
  Total DAPI+ Cells: −72%
  Tumor Cells (% Olig2+): −27%
[1]; BLZ945, Day 7
  Apoptosis (% CC3+): +6-fold
  Macrophages (% CD68+): +2-fold
  Phagocytic Capacity: +5.0-fold
  Total DAPI+ Cells: −80%
  Tumor Cells (% Olig2+): −77%
  Vasculature (CD31 MVD): −17%
[1]; BLZ945 Large, Day 3
  Apoptosis (% CC3+): +9-fold
  Macrophages (% CD68+): +2-fold
  Phagocytic Capacity: +7.1-fold
  Total DAPI+ Cells: −40%
  Tumor Cells (% Olig2+): −14%
[1]; BLZ945 Large, Day 7
  Apoptosis (% CC3+): +2-fold
  Macrophages (% CD68+): +4-fold
  Phagocytic Capacity: +6.0-fold
  Total DAPI+ Cells: −65%
  Tumor Cells (% Olig2+): −73%
  Vasculature (CD31 MVD): −67%
[1]; earlier time point in particular
  level of apoptosis (CC3+): increase in apoptosis
[1]; vs vehicle controls
  Olig2 (tumor cell density): significantly reduced
[2]
  activity in Ambit kinase array: lower than 50 % of control
[3]; 67 nM
  rate of population doubling of BMDM cells: same effect on this rate as absence of CSF-1 stimulation
[3]; 67 nM to 6700 nM, wild-type BMDMs
  macrophage survival: dramatically blocked macrophage survival
[4]
  IC50: ~0.067 µM
[5]
  effects on tumor cell lines established from secondary mouse GBM neurospheres: no differences
[6]; 6 days of dosing
  treated animals with reduced tumor size: 7 of 11
[6]; 6 days, of 11 animals
  treated animals with tumor volume increases over 50%: two
[6]; 7 day trial
  tumor size by MRI: no increase in tumor size
[6]; BLZ945, Day 7, tumors 4.5-40 mm^3
  Tumor Volume (Day −1 vs Day 6): +0.68%
[6]; large tumor cohort 48.7 to 132 mm^3, 6 days
  treated mice with reduction of at least 30% in tumor size: 6 of 18
[6]; large tumor cohort, 6 days
  tumor volume change: decreased in nearly all test animals
[7]; 200 mg/kg oral gavage daily, 26 weeks post-injection
  treated cohort still alive (symptom-free survival) at trial endpoint: 64.4%
[7]; 12 weeks, of 4 mice
  mice with grade II glioma among 4 treated mice sacrificed for histology: one
  tumor free mice among 4 treated mice sacrificed for histology: 3
[7]; long-term trial
  treated animals either Grade II or tumor free: 80%
  treated animals with Grade III tumor: 20%
  tumor malignancy vs vehicle: significantly less malignant tumors
[7]; mice alive at 26-week trial endpoint
  mice with no detectable lesions: 56%
[8]
  formation of secondary neurospheres: not altered
[8]; 670 nM
  total number and size of neurospheres: unaffected
[9]
  IC50: > 10 µM

## CCCn1cc(-c2cc(Oc3ccc4nc(N[C@@H]5CCCC[C@H]5O)sc4c3)ccn2)cn1 [Ih-C]
PDGFR-β
  IC50: 1.5 µM
CSF-1R
  IC50: 0.007 µM

## Cn1cc(-c2cc(Oc3ccc4nc(N[C@H]5CCCC[C@@H]5O)sc4c3)ccn2)cn1 [Ih-D]
PDGFR-β
  IC50: 0.02 µM
CSF-1R
  IC50: 0.001 µM
